Test results as given in patent publication US20240132431A1, “METHOD FOR ALKYLATING ACIDIC FUNCTIONAL GROUP” (Chugai Seiyaku Kabushiki Kaisha, priority 2021, published 2024).

Molecular target: T1, Bcl-2 protein (Recombinant Human Bcl-2 Protein) (Homo sapiens, UniProt P10415)
T1 construct: purchased Novus NBP2-34889
Assay: Binding evaluation of mixture library compounds to Bcl-2 using AS-MS (affinity selection mass spectrometry)
Details: AS-MS, mixture library, Bcl-2, ASMS Ratio(%)=(A−C)/B×100; for ASMS ratio (%) n = 1: replicate n = 1; for ASMS ratio (%) n = 2: replicate n = 2
Method in brief: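 ASMS Ratio (%) was calculated as (A−C)/B×100, where A is the protein sample after SEC, B the protein-free sample without SEC and C the protein-free sample after SEC. Each compound was at […] in a 1200-member pool with 20 μM Bcl-2, incubated 1 h at 23° C.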

T1 sequence (P10415 whole entry): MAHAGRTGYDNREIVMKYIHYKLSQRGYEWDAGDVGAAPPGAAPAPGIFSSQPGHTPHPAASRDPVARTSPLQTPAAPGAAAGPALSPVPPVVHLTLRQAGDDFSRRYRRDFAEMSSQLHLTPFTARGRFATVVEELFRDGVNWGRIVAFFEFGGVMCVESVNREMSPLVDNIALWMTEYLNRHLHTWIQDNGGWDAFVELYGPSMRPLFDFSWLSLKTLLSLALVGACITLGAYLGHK

Row | SMILES | ASMS ratio (%) n = 1 | ASMS ratio (%) n = 2
1 | CCOc1cccc(-c2cc(CN3CCN(c4ccc(C(=O)NS(=O)(=O)CC56CC7CC(CC(C7)C5)C6)nn4)CC3)cc(OC(C)C)c2)c1 [B2A083-01, N-(1-Adamantylmethylsulfonyl)-6-[4-[[3-(3-ethoxyphenyl)-5-propan-2-yloxyphenyl]methyl]piperazin-1-yl]pyridazine-3-carboxamide] | 10.3% | 0.0%
2 | CCOc1cncc(-c2cc(CN3CCN(c4ccc(C(=O)NS(=O)(=O)CC56CC7CC(CC(C7)C5)C6)nn4)CC3)cc(OC(C)C)c2)c1 [B2A084-01, N-(1-Adamantylmethylsulfonyl)-6-[4-[[3-(5-ethoxypyridin-3-yl)-5-propan-2-yloxyphenyl]methyl]piperazin-1-yl]pyridazine-3-carboxamide] | 13.3% | 11.9%
3 | CCOc1cccc(-c2cc(OC)c(CN3CCN(c4ccc(C(=O)NS(=O)(=O)CC56CC7CC(CC(C7)C5)C6)nn4)CC3)c(OC)c2)c1 [B2A085-01, N-(1-Adamantylmethylsulfonyl)-6-[4-[[4-(3-ethoxyphenyl)-2,6-dimethoxyphenyl]methyl]piperazin-1-yl]pyridazine-3-carboxamide] | 0.0% | 0.0%
4 | CCOc1cncc(-c2cc(OC)c(CN3CCN(c4ccc(C(=O)NS(=O)(=O)CC56CC7CC(CC(C7)C5)C6)nn4)CC3)c(OC)c2)c1 [B2A086-01, N-(1-Adamantylmethylsulfonyl)-6-[4-[[4-(5-ethoxypyridin-3-yl)-2,6-dimethoxyphenyl]methyl]piperazin-1-yl]pyridazine-3-carboxamide] | 0.0% | 0.0%
5 | CCOc1cccc(-c2cc(CN3CCN(c4ccc(C(=O)NS(=O)(=O)CC56CC7CC(CC(C7)C5)C6)nn4)CC3)cc(C(F)(F)F)c2)c1 [B2A087-01, N-(1-Adamantylmethylsulfonyl)-6-[4-[[3-(3-ethoxyphenyl)-5-(trifluoromethyl)phenyl]methyl]piperazin-1-yl]pyridazine-3-carboxamide] | 7.2% | 12.7%
6 | CCOc1cncc(-c2cc(CN3CCN(c4ccc(C(=O)NS(=O)(=O)CC56CC7CC(CC(C7)C5)C6)nn4)CC3)cc(C(F)(F)F)c2)c1 [B2A088-01, N-(1-Adamantylmethylsulfonyl)-6-[4-[[3-(5-ethoxypyridin-3-yl)-5-(trifluoromethyl)phenyl]methyl]piperazin-1-yl]pyridazine-3-carboxamide] | 12.0% | 14.0%
7 | CCOc1cncc(-c2cc(CN3CCN(c4ccc(C(=O)NS(=O)(=O)CC56CC7CC(CC(C7)C5)C6)nn4)CC3)cc(OC(F)(F)F)c2)c1 [B2A090-01, N-(1-Adamantylmethylsulfonyl)-6-[4-[[3-(5-ethoxypyridin-3-yl)-5-(trifluoromethoxy)phenyl]methyl]piperazin-1-yl]pyridazine-3-carboxamide] | 22.0% | 4.7%
8 | CCOc1cccc(-c2ccc(CN3CCN(c4ccc(C(=O)NS(=O)(=O)CC56CC7CC(CC(C7)C5)C6)nn4)CC3)c3ccccc23)c1 [B2A091-01, N-(1-Adamantylmethylsulfonyl)-6-[4-[[4-(3-ethoxyphenyl)naphthalen-1-yl]methyl]piperazin-1-yl]pyridazine-3-carboxamide] | −2.6% | 3.8%
9 | CCOc1cncc(-c2ccc(CN3CCN(c4ccc(C(=O)NS(=O)(=O)CC56CC7CC(CC(C7)C5)C6)nn4)CC3)c3ccccc23)c1 [B2A092-01, N-(1-Adamantylmethylsulfonyl)-6-[4-[[4-(5-ethoxypyridin-3-yl)naphthalen-1-yl]methyl]piperazin-1-yl]pyridazine-3-carboxamide] | 20.8% | 16.6%
10 | CCOc1cccc(-c2csc(CN3CCN(c4ccc(C(=O)NS(=O)(=O)CC56CC7CC(CC(C7)C5)C6)nn4)CC3)c2)c1 [B2A093-01, N-(1-Adamantylmethylsulfonyl)-6-[4-[[4-(3-ethoxyphenyl)thiophen-2-yl]methyl]piperazin-1-yl]pyridazine-3-carboxamide] | 13.0% | 0.0%
11 | CCOc1cncc(-c2csc(CN3CCN(c4ccc(C(=O)NS(=O)(=O)CC56CC7CC(CC(C7)C5)C6)nn4)CC3)c2)c1 [B2A094-01, N-(1-Adamantylmethylsulfonyl)-6-[4-[[4-(5-ethoxypyridin-3-yl)thiophen-2-yl]methyl]piperazin-1-yl]pyridazine-3-carboxamide] | 0.0% | 0.0%
12 | CCOc1cccc(C#Cc2ccccc2CN2CCN(c3ccc(C(=O)NS(=O)(=O)CC45CC6CC(CC(C6)C4)C5)nn3)CC2)c1 [B2A095-01, N-(1-Adamantylmethylsulfonyl)-6-[4-[[2-[2-(3-ethoxyphenyl)ethynyl]phenyl]methyl]piperazin-1-yl]pyridazine-3-carboxamide] | 1.6% | 13.8%
13 | CCOc1cccc(-c2ccc(C(C)N3CCN(c4ccc(C(=O)NS(=O)(=O)CC56CC7CC(CC(C7)C5)C6)cc4)CC3)cc2)c1 (stereo not drawn) [B2A097-01, N-(1-Adamantylmethylsulfonyl)-4-[4-[1-[4-(3-ethoxyphenyl)phenyl]ethyl]piperazin-1-yl]benzamide] | 9.7% | 0.4%
14 | CCOc1cncc(-c2ccc(C(C)N3CCN(c4ccc(C(=O)NS(=O)(=O)CC56CC7CC(CC(C7)C5)C6)cc4)CC3)cc2)c1 (stereo not drawn) [B2A098-01, N-(1-Adamantylmethylsulfonyl)-4-[4-[1-[4-(5-ethoxypyridin-3-yl)phenyl]ethyl]piperazin-1-yl]benzamide] | 18.2% | 2.1%
15 | CCOc1cccc(-c2ccc(C(C)N3CCN(c4ccc(C(=O)NS(=O)(=O)CC56CC7CC(CC(C7)C5)C6)cc4)CC3)c(F)c2)c1 (stereo not drawn) [B2A099-01, N-(1-Adamantylmethylsulfonyl)-4-[4-[1-[4-(3-ethoxyphenyl)-2-fluorophenyl]ethyl]piperazin-1-yl]benzamide] | 0.0% | 0.0%
16 | CCOc1cncc(-c2ccc(C(C)N3CCN(c4ccc(C(=O)NS(=O)(=O)CC56CC7CC(CC(C7)C5)C6)cc4)CC3)c(F)c2)c1 (stereo not drawn) [B2A100-01, N-(1-Adamantylmethylsulfonyl)-4-[4-[1-[4-(5-ethoxypyridin-3-yl)-2-fluorophenyl]ethyl]piperazin-1-yl]benzamide] | 0.0% | 0.0%
17 | CCOc1cccc(-c2csc(C(=O)N3CCN(c4ccc(C(=O)NS(C)(=O)=O)nn4)CC3)c2)c1 [B2I001-01, 6-[4-[4-(3-Ethoxyphenyl)thiophene-2-carbonyl]piperazin-1-yl]-N-methylsulfonylpyridazine-3-carboxamide] | 0.0% | –
18 | CCOc1cncc(-c2csc(C(=O)N3CCN(c4ccc(C(=O)NS(C)(=O)=O)nn4)CC3)c2)c1 [B2I002-01, 6-[4-[4-(5-Ethoxypyridin-3-yl)thiophene-2-carbonyl]piperazin-1-yl]-N-methylsulfonylpyridazine-3-carboxamide] | 0.0% | 0.0%
19 | CCOc1cccc(-c2ccc(C(=O)N3CCN(c4ccc(C(=O)NS(C)(=O)=O)nn4)CC3)cc2C)c1 [B2I003-01, 6-[4-[4-(3-Ethoxyphenyl)-3-methylbenzoyl]piperazin-1-yl]-N-methylsulfonylpyridazine-3-carboxamide] | 0.0% | 0.0%
20 | CCOc1cncc(-c2ccc(C(=O)N3CCN(c4ccc(C(=O)NS(C)(=O)=O)nn4)CC3)cc2C)c1 [B2I004-01, 6-[4-[4-(5-Ethoxypyridin-3-yl)-3-methylbenzoyl]piperazin-1-yl]-N-methylsulfonylpyridazine-3-carboxamide] | 0.9% | −0.3%
21 | CCOc1cccc(-c2ccc(C(=O)N3CCN(c4ccc(C(=O)NS(C)(=O)=O)nn4)CC3)cc2F)c1 [B2I005-01, 6-[4-[4-(3-Ethoxyphenyl)-3-fluorobenzoyl]piperazin-1-yl]-N-methylsulfonylpyridazine-3-carboxamide] | 0.0% | 0.0%
22 | CCOc1cncc(-c2ccc(C(=O)N3CCN(c4ccc(C(=O)NS(C)(=O)=O)nn4)CC3)cc2F)c1 [B2I006-01, 6-[4-[4-(5-Ethoxypyridin-3-yl)-3-fluorobenzoyl]piperazin-1-yl]-N-methylsulfonylpyridazine-3-carboxamide] | 0.0% | 0.0%
23 | CCOc1cccc(C#Cc2ccccc2C(=O)N2CCN(c3ccc(C(=O)NS(C)(=O)=O)nn3)CC2)c1 [B2I007-01, 6-[4-[2-[2-(3-Ethoxyphenyl)ethynyl]benzoyl]piperazin-1-yl]-N-methylsulfonylpyridazine-3-carboxamide] | −1.6% | −1.6%
24 | CCOc1cncc(C#Cc2ccccc2C(=O)N2CCN(c3ccc(C(=O)NS(C)(=O)=O)nn3)CC2)c1 [B2I008-01, 6-[4-[2-[2-(5-Ethoxypyridin-3-yl)ethynyl]benzoyl]piperazin-1-yl]-N-methylsulfonylpyridazine-3-carboxamide] | 0.0% | 0.0%
25 | CCOc1cccc(C#Cc2cncc(C(=O)N3CCN(c4ccc(C(=O)NS(C)(=O)=O)nn4)CC3)c2)c1 [B2I009-01, 6-[4-[5-[2-(3-Ethoxyphenyl)ethynyl]pyridine-3-carbonyl]piperazin-1-yl]-N-methylsulfonylpyridazine-3-carboxamide] | 0.0% | 0.0%
26 | CCOc1cccc(-c2ccccc2CCC(=O)N2CCN(c3ccc(C(=O)NS(C)(=O)=O)nn3)CC2)c1 [B2I011-01, 6-[4-[3-[2-(3-Ethoxyphenyl)phenyl]propanoyl]piperazin-1-yl]-N-methylsulfonylpyridazine-3-carboxamide] | 0.0% | 0.0%
